From patent US10561703B2, “Method of modulating sex hormone levels using a sex hormone secretion modulator” (GEMVAX & KAEL CO., LTD., priority 2013, dated 2020)

Test system: Testosterone
Test: Testosterone level in blood (serum CLIA) after repeated sc PEP-1
Format: in vivo, SD rats
Description: PEP-1 (peptide of SEQ ID NO: 1), lyophilized white powder, obtained according to the method mentioned in example 1 was dissolved in 0.9% of saline, considering the correction factor of PEP-1 (purity: 94.13%, content: 92.36%, correction factor: 1.15). 50 mg/mL stock solution was further diluted into 20 mg/mL, 2 mg/mL, and 1 mg/mL with 0.9% saline, and stored at 4° C. for a week until the use.
The purpose of this example is to confirm the change of sexual hormones in blood from SD rats with 7 days repeated daily administration of SEQ ID NO: 1 peptide, PEP-1. This experiment followed the Ethics Regulation of Animal Test by KAMSI Inc. (Korea Animal Medical Science Institute). In addition, this experiment, Non-GLP experiment, referred to the MFDS (Ministry of Food and Drug Safety) notification; Agent 2013-40 (5th April 2013), Principles of Good Laboratory Practice (1997).
SPF Rats (Crlj:CD(SD)) were purchased from ORIENTBio Inc. (Mokdong-ri, Buk-myeon, Gapyeong-gun, Gyeonggi-do, Republic of Korea). 75 male (6.5 weeks old and 190˜210 g) and 75 female (6.5 weeks old and 160˜180 g) rats were monitored for 4 days, and 64 of male and female rats (each) were selected for the experiment. Raising condition is as follows; 23±3° C. of temperature, […] of relative humidity, 10˜20 times/hr of number of air changes, 12 hours (8 a.m.˜8 p.m.) of lighting with 150˜300 Lux of intensity.
64 male and female […] (mentioned above) were divided into 8 groups. Administration regimen, for example, drugs, routes, dosages, and volumes were as follows:
The detailed administration regimen is as follows; once a day, twice a day and twice a week in each experimental group. Injection initiated at 10 a.m. every day, and each rat was injected at one minute intervals. Rats in Group 9, 10, 13 and 14 were injected twice a week. Administration of high dose test agent preceded that of low dose. The volume of injection was calculated using recently measured weight of rats, and it was 5 mL/kg. Subcutaneous injection was performed as follows; assistant tilted the back of rat upward, and experimenter sterilized the back of rat with 70% alcohol, followed by subcutaneous injection of test agent with 26 G syringe.
1.4 mL of blood sample (0.7 mL of serum) was collected after measurement of weight (Day 0). Next day (1 Day), 1.4 mL of blood sample (0.7 mL of serum) was collected twice after injection of test agent (4 hrs and 8 hrs after administration of test agent). For next 6 days (Day 2˜Day 7), 1.4 mL of blood was extracted once everyday (4 hours after injection of test agent). Dose and volume of test agent of each group followed the Table 3, and injection time zone was same every day. Blood was extracted from the jugular vein, and left at room temperature for 30 minutes. Serum was separated using centrifugation (10,000 rpm for 5 minutes), and stored at −70±5° C. in Deep freezer until the use. Blood extraction from each subject was done in the same time zone every day.
A CLIA (Chemi-Luminescence Immune Assay) Kit was used to analyze Testosterone, Estradiol E2, FSH (Follicle stimulating hormone), and LH (Luteinizing hormone). Analysis was completed within 48 hrs after blood extraction (Laboratory Medicine Department, Chung-Ang University Hospital), and detailed method is as follows; One-way ANOVA was used to verify the comparison between the vehicle and PEP-1, and between different doses of PEP-1. For further analysis, Duncan test was used as parametric test and Dunnett's test as non-parametric test. p<0.05 represents the statistical significance, and all statistical analysis was carried out with SPSS 10.1.
Testosterone was analyzed using the samples prepared from example 2. 15 μL of serum was used for analysis. Fundamentals of analysis is competitive immunoassay based on direct chemi-luminescent. As mentioned in example 2, CLIA (Chemi-luminescence immune assay) Kit was used for Testosterone analysis, following the manufacture's protocol. […]

EARPALLTSRLRFIPK (listed as Homo sapiens) [PEP-1, hormone secretion modulator / GnRH analog]
Testosterone level in blood (G3 Female 5 mg/kg sc 1/day x7, 7 days): 2.91 ng/dL | Testosterone level in blood (G4 Male 5 mg/kg sc 1/day x7, 4 hr): 0.12 ng/dL | Testosterone level in blood (G4 Male 5 mg/kg sc 1/day x7, 8 hr): 0.06 ng/dL | Testosterone level in blood (G4 Male 5 mg/kg sc 1/day x7, 2 days): 0.04 ng/dL | Testosterone level in blood (G4 Male 5 mg/kg sc 1/day x7, 3 days): 0.06 ng/dL | Testosterone level in blood (G4 Male 5 mg/kg sc 1/day x7, 4 days): 0.15 ng/dL | Testosterone level in blood (G4 Male 5 mg/kg sc 1/day x7, 5 days): 0.13 ng/dL | Testosterone level in blood (G4 Male 5 mg/kg sc 1/day x7, 6 days): 0.19 ng/dL | Testosterone level in blood (G4 Male 5 mg/kg sc 1/day x7, 7 days): 0.19 ng/dL | Testosterone level in blood (G4 Male 5 mg/kg sc 1/day x7, pre): 0.2 ng/dL | Testosterone level in blood (G6 Male 10 mg/kg sc 1/day x7, 4 hr): 0.15 ng/dL | Testosterone level in blood (G6 Male 10 mg/kg sc 1/day x7, 8 hr): 0.01 ng/dL | Testosterone level in blood (G6 Male 10 mg/kg sc 1/day x7, 2 days): 0.01 ng/dL | Testosterone level in blood (G6 Male 10 mg/kg sc 1/day x7, 3 days): 0.05 ng/dL | Testosterone level in blood (G6 Male 10 mg/kg sc 1/day x7, 4 days): 0.12 ng/dL | Testosterone level in blood (G6 Male 10 mg/kg sc 1/day x7, 5 days): 0.1 ng/dL | Testosterone level in blood (G6 Male 10 mg/kg sc 1/day x7, 6 days): 0.12 ng/dL | Testosterone level in blood (G6 Male 10 mg/kg sc 1/day x7, 7 days): 0.11 ng/dL | Testosterone level in blood (G6 Male 10 mg/kg sc 1/day x7, pre): 0.13 ng/dL | Testosterone level in blood (G8 Male 10 mg/kg sc 2/day x4, 4 hr): 0.12 ng/dL | Testosterone level in blood (G8 Male 10 mg/kg sc 2/day x4, 8 hr): 0.04 ng/dL | Testosterone level in blood (G8 Male 10 mg/kg sc 2/day x4, 2 days): 0.01 ng/dL | Testosterone level in blood (G8 Male 10 mg/kg sc 2/day x4, 3 days): 0.07 ng/dL | Testosterone level in blood (G8 Male 10 mg/kg sc 2/day x4, 4 days): 0.05 ng/dL | Testosterone level in blood (G8 Male 10 mg/kg sc 2/day x4, 5 days): 0.18 ng/dL | Testosterone level in blood (G8 Male 10 mg/kg sc 2/day x4, 6 days): 0.08 ng/dL | Testosterone level in blood (G8 Male 10 mg/kg sc 2/day x4, 7 days): 0.12 ng/dL | Testosterone level in blood (G8 Male 10 mg/kg sc 2/day x4, pre): 0.17 ng/dL | Testosterone level in blood (G9 Female 10 mg/kg sc 2/week x2 (days 1,7), 4 hr): 7.92 ng/dL | Testosterone level in blood (G9 Female 10 mg/kg sc 2/week x2 (days 1,7), 8 hr): 7.57 ng/dL | Testosterone level in blood (G9 Female 10 mg/kg sc 2/week x2 (days 1,7), 2 days): 0.9 ng/dL | Testosterone level in blood (G9 Female 10 mg/kg sc 2/week x2 (days 1,7), 3 days): 1.05 ng/dL | Testosterone level in blood (G9 Female 10 mg/kg sc 2/week x2 (days 1,7), 4 days): 1.21 ng/dL | Testosterone level in blood (G9 Female 10 mg/kg sc 2/week x2 (days 1,7), 5 days): 1.73 ng/dL | Testosterone level in blood (G9 Female 10 mg/kg sc 2/week x2 (days 1,7), 6 days): 1.67 ng/dL | Testosterone level in blood (G9 Female 10 mg/kg sc 2/week x2 (days 1,7), 7 days): 9.43 ng/dL | Testosterone level in blood (G9 Female 10 mg/kg sc 2/week x2 (days 1,7), pre): 2.3 ng/dL | Testosterone level in blood (G10 Male 10 mg/kg sc 2/week x2 (days 1,7), 4 hr): 0.16 ng/dL | Testosterone level in blood (G10 Male 10 mg/kg sc 2/week x2 (days 1,7), 8 hr): 0.02 ng/dL | Testosterone level in blood (G10 Male 10 mg/kg sc 2/week x2 (days 1,7), 2 days): 0 ng/dL | Testosterone level in blood (G10 Male 10 mg/kg sc 2/week x2 (days 1,7), 3 days): 0.06 ng/dL | Testosterone level in blood (G10 Male 10 mg/kg sc 2/week x2 (days 1,7), 4 days): 0.17 ng/dL | Testosterone level in blood (G10 Male 10 mg/kg sc 2/week x2 (days 1,7), 5 days): 0.08 ng/dL | Testosterone level in blood (G10 Male 10 mg/kg sc 2/week x2 (days 1,7), 6 days): 0.1 ng/dL | Testosterone level in blood (G10 Male 10 mg/kg sc 2/week x2 (days 1,7), 7 days): 0.13 ng/dL | Testosterone level in blood (G10 Male 10 mg/kg sc 2/week x2 (days 1,7), pre): 0.15 ng/dL | Testosterone level in blood (G11 Female 100 mg/kg sc 1/day x7, 4 hr): 7.73 ng/dL | Testosterone level in blood (G11 Female 100 mg/kg sc 1/day x7, 8 hr): 7.41 ng/dL | Testosterone level in blood (G11 Female 100 mg/kg sc 1/day x7, 2 days): 3.92 ng/dL | Testosterone level in blood (G11 Female 100 mg/kg sc 1/day x7, 3 days): 1.55 ng/dL | Testosterone level in blood (G11 Female 100 mg/kg sc 1/day x7, 4 days): 0.63 ng/dL | Testosterone level in blood (G11 Female 100 mg/kg sc 1/day x7, 5 days): 0.55 ng/dL
